This note sets out measurements from PMC11012124, “Synthesis of Novel Triazine-Based Chalcones and 8,9-dihydro-7H-pyrimido[4,5-b][1,4]diazepines as Potential Leads in the Search of Anticancer, Antibacterial and Antifungal Agents” (International Journal of Molecular Sciences, 2024).

Converted amounts (≈) assume the structure as drawn.

For one series, the system named is A. flavus (ATCC 9170). Put plainly: Antifungal broth microdilution (CLSI). The series is classed as cell-based. The note with it: ATCC9170; Afl: Aspergillus flavus. In outline:
(§1)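 Broth microdilution followed CLSI M27-A3 for yeasts and the filamentous-fungi reference method, in 200 μL final volume with DMSO-matched growth controls. Plates were incubated in the dark and humid at 30 °C for a time suited to each fungus; testing was done in triplicate.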

Series [1] relates to A. fumigatus (ATCC 26934). Put plainly: Antifungal broth microdilution (CLSI). The series is classed as cell-based. The note with it: ATCC26934; Afu: Aspergillus fumigatus. The gist of the method:
as §1

The next series has as its system A. niger (ATCC 9029). Put plainly: Antifungal broth microdilution (CLSI). The series is classed as cell-based. Particulars: ATCC9029; Ani: Aspergillus niger. The gist of the method:
as §1
A general note: In broth dilution the organism is exposed to a series of concentrations in liquid medium.

Series [2] relates to Candida albicans (ATCC 10231). Put plainly: Antifungal broth microdilution (CLSI). The format is cell-based. The note with it: ATCC10231; Ca: Candida albicans. In outline:
as §1

Series [3] has as its system Cryptococcus neoformans (ATCC 32264). The series can be described thus: Antifungal broth microdilution (CLSI). The format is cell-based. Particulars: ATCC32264; Cn: Cryptococcus neoformans. The gist of the method:
as §1

In series [4] the test system is Trichophyton mentagrophytes (CCC 202-2000). The series can be described thus: Antifungal broth microdilution (CLSI). The format is cell-based. The note with it: Tm: Trichophyton mentagrophytes. The gist of the method: as §1
In series [5] the test system is Trichophyton rubrum (CCC 134-2000). Put plainly: Antifungal broth microdilution (CLSI). The format is cell-based. The note with it: Tr: Trichophyton rubrum. The gist of the method:
as §1

The test system of another series is Galleria mellonella. Put plainly: Toxicity in the Galleria mellonella model. The note with it: G. mellonella larvae, at the higher doses.
A further series deals with SR. The note with it: 48 h.
Another series deals with LOX IMVI. Particulars: 48 h; for GI50: LOX IMVI.
For another series, the system named is CCRF-CEM. Particulars: 48 h.
In another series the test system is K-562. The note with it: K-562, 48 h.
In a further series the test system is MOLT-4. The note with it: MOLT-4, 48 h.
The subject of the next series is S. aureus ATCC 43300. The series can be described thus: Antibacterial MIC, microdilution. The series is classed as cell-based. Particulars: Staphylococcus aureus; S. aureus ATCC 43300 (MRSA).
Another series deals with SF-539. The note with it: human, 48 h.
The subject of the next series is U251. The note with it: U251, 48 h.
For series [6], the system named is human red blood cells (huRBC). Put plainly: Hemolytic activity, spectrophotometric. The format is cell-based. The note with it: 200 μg/mL, 24 h, 37 °C.

Method for Galleria mellonella: G mellonella larvae were cultivated in the laboratory and healthy, beige larvae weighing 150–200 mg, were selected for toxicity assays.

Turning to `COc1ccc(/C=C/C(=O)c2ccc(S(=O)(=O)NCCNc3nc(Nc4ccc(F)cc4)nc(N(C)C)n3)cc2)cc1` [24c], the MIC (with A. flavus (ATCC 9170); in series [1]; against A. niger (ATCC 9029); in series [2]; in series [3]; in series [4]) was greater than 250 µg/mL each time. The same compound yielded an MIC in [5] of 125 µg/mL (≈ 211 µM).
In the case of `CN(C)c1nc(NCCNS(=O)(=O)c2ccc(C(=O)/C=C/c3ccc(Cl)cc3)cc2)nc(Nc2ccc(F)cc2)n1` [24e], the MIC against A. flavus (ATCC 9170) is greater than 250 µg/mL; in series [1], greater than 250 µg/mL; against A. niger (ATCC 9029), greater than 250 µg/mL; in series [2] it was greater than 250 µg/mL; in series [3] it was greater than 250 µg/mL; in [4], 125 µg/mL (≈ 210 µM). The MIC in series [5] was greater than 250 µg/mL.
In the case of `CN(C)c1nc(NCCNS(=O)(=O)c2ccc(C3=Nc4c(N)nc(N)nc4NC(c4ccc(C(F)(F)F)cc4)C3)cc2)nc(N2CCOCC2)n1` (stereo not shown) [30g], the MIC against A. flavus (ATCC 9170) was greater than 250 µg/mL; in series [1], greater than 250 µg/mL; in the series with A. niger (ATCC 9029) it was greater than 250 µg/mL; in series [2] it was 125 µg/mL (≈ 172 µM); in [3], 125 µg/mL (≈ 172 µM); in series [4] it was greater than 250 µg/mL. Moreover, the MIC in [5] amounted to 250 µg/mL (≈ 344 µM). Besides, the mortality with Galleria mellonella is on record as no more than 25%.
For `COc1cc(/C=C/C(=O)c2cc(OC)c(OC)c(OC)c2)ccc1Oc1nc(NCCO)nc(N2CCOCC2)n1` [20d], the 50% growth inhibitory concentration (GI50) with SR worked out at 780 nM; in the series with LOX IMVI it was 640 nM.
`Nc1nc(N)c2c(n1)NC(c1ccc(F)cc1)CC(c1ccc(Nc3nc(NCCO)nc(Nc4ccc(Cl)cc4)n3)cc1)=N2` (stereo not shown) [33f]: the GI50 was found to be 750 nM with CCRF-CEM, 490 nM in the series with K-562, 530 nM in the series with MOLT-4 and 670 nM with SR.
Take `Nc1nc(N)c2c(n1)NC(c1ccc(C(F)(F)F)cc1)CC(c1ccc(Nc3nc(NCCO)nc(Nc4ccc(Cl)cc4)n3)cc1)=N2` (stereo not shown) [33g]: the MIC with S. aureus ATCC 43300 was determined as 31.2 µg/mL (≈ 46.2 µM). Further, the GI50 worked out at 640 nM with K-562 and 890 nM in the series on MOLT-4.
For `COc1cc(C2CC(c3ccc(Cl)cc3)=Nc3c(N)nc(N)nc3N2)ccc1Oc1nc(Nc2ccc(F)cc2)nc(N(C)C)n1` (stereo not shown) [29e], the MIC (in the series with A. flavus (ATCC 9170); in series [1]; against A. niger (ATCC 9029); in [2]; in series [3]; in series [4]) was greater than 250 µg/mL each time. For the same compound, in series [5], inhibition of growth (MIC) required 62.5 µg/mL (≈ 97.3 µM).
`CN(C)c1nc(NCCNS(=O)(=O)c2ccc(C(=O)/C=C/c3ccc(Cl)cc3)cc2)nc(N2CCOCC2)n1` [23e]: the MIC was greater than 250 µg/mL against A. flavus (ATCC 9170); greater than 250 µg/mL in series [1]; greater than 250 µg/mL in the series on A. niger (ATCC 9029); 250 µg/mL (≈ 437 µM) in series [2]; 250 µg/mL (≈ 437 µM) in [3]; greater than 250 µg/mL in series [4]. The compound also displayed an MIC in series [5] of 125 µg/mL (≈ 218 µM).
Turning to `COc1cc(/C=C/C(=O)c2ccccc2)ccc1Oc1nc(Nc2ccc(F)cc2)nc(N(C)C)n1` [21a], in the series with Galleria mellonella, the mortality is given as no more than 25%.
In the case of `CN(C)c1nc(NCCNS(=O)(=O)c2ccc(C3=Nc4c(N)nc(N)nc4NC(c4ccc(C(F)(F)F)cc4)C3)cc2)nc(Nc2ccc(F)cc2)n1` (stereo not shown) [31g], the MIC was greater than 250 µg/mL with A. flavus (ATCC 9170); 62.5 µg/mL (≈ 83.1 µM) in series [1]; greater than 250 µg/mL in the series with A. niger (ATCC 9029); greater than 250 µg/mL in series [2]; greater than 250 µg/mL in series [3]; 62.5 µg/mL (≈ 83.1 µM) in series [4]. The compound further showed an MIC in [5] of 250 µg/mL (≈ 333 µM).
For `COc1cc(/C=C/C(=O)c2ccc(S(=O)(=O)NCCNc3nc(Nc4ccc(F)cc4)nc(N(C)C)n3)cc2)cc(OC)c1OC` [24d], the CC50 with SF-539 stood at 5620 nM; with LOX IMVI (human), 5930 nM.
In the case of `COc1cc(/C=C/C(=O)c2cc(OC)c(OC)c(OC)c2)ccc1Oc1nc(Nc2ccc(F)cc2)nc(N(C)C)n1` [21d], the MIC in the series with A. flavus (ATCC 9170) is greater than 250 µg/mL; in series [1], greater than 250 µg/mL; against A. niger (ATCC 9029), 125 µg/mL (≈ 217 µM); in series [2] it was greater than 250 µg/mL; in series [3], greater than 250 µg/mL; in [4], greater than 250 µg/mL. Further, the MIC in [5] is 125 µg/mL (≈ 217 µM). For the same compound, the GI50 amounted to 470 nM in the series with MOLT-4, 500 nM in the series with U251 and 480 nM in the series with LOX IMVI. Also, in the series on Galleria mellonella, the mortality is reported as no more than 25%.
In the case of `Cc1ccc(C2CC(c3ccc(Nc4nc(NCCO)nc(Nc5ccc(Cl)cc5)n4)cc3)=Nc3c(N)nc(N)nc3N2)cc1` (stereo not shown) [33b], the “% Hemolysis” value in series [6] came to 100%.

By MIC is commonly meant the least concentration at which growth counts as inhibited. By mortality is commonly meant the share of the test organisms that died. A higher mortality goes with fewer survivors. One may read the GI50 as the concentration giving 50% growth inhibition. The low end stands for more potent growth inhibition, the high end for less potent growth inhibition.
